SMILES strings stand for the structures.

The data set can be described thus: HILIC, Waters ACQUITY UPLC BEH Amide, 100 × 2.1 mm, 1.7 µm; A: water + 0.125% formic acid + 10 mM ammonium formate; B: 5% water + 95% acetonitrile + 0.125% formic acid + 10 mM ammonium formate; gradient (min/%B) 0/100 2/100 7.7/70 9.5/40 10.25/30 12.75/100 17/100. Particulars: stereoisomer not certain.
Take `C[N+](C)(C)CCOP(=O)([O-])OCC(O)CO` (stereo unspecified) [Glycerophosphocholine]: the LC retention time was determined as 8.67 min. The figure for `O=C1Nc2ccc(Cl)cc2C(c2ccccc2Cl)=NC1O` (stereo unspecified) [Lorazepam] is 1.33 min; for `COC(=O)C1=C(C)NC(C)=C(C(=O)OC(C)C)C1c1cccc2nonc12` (stereo unspecified) [Isradipine] it is 0.95 min. In the case of `CC(C)NCC(O)COc1ccc(COCCOC(C)C)cc1` (stereo unspecified) [Bisoprolol] it was 3.47 min; in that of `Nc1nc2nc[nH]c2c(=O)[nH]1` [Guanine], 6.4 min; in that of `CC(C)=CCNc1ncnc2c1ncn2C1OC(CO)C(O)C1O` (stereo unspecified) [N6-Isopentenyladenosine], 1.48 min. In the case of `CC(=O)NCCc1c[nH]c2ccc(O)cc12` [N-Acetyl-5-hydroxytryptamine] it was 1.43 min; in that of `NCC1CCC(C(=O)O)CC1` (stereo unspecified) [4-Aminomethylcyclohexanecarboxylic acid], 6.6 min. On to `CC(=O)C1(O)CCC2C3CC(C)C4=CC(=O)CCC4(C)C3CCC21C` (stereo unspecified) [Medroxyprogesterone], for which the LC retention time amounted to 1.01 min. In the case of `CC(=O)Nc1ccn(C2OC(CO)C(O)C2O)c(=O)n1` (stereo unspecified) [N-Acetylcytidine] it was 5.08 min.

With `CCCSc1ccc2nc(NC(=O)OC)[nH]c2c1` [Albendazole], the LC retention time came out at 1.22 min. On to `Nc1c2c(nc3ccccc13)CCCC2` [Tacrine], for which the LC retention time turned out to be 3.86 min. For the compound `COC1C=COC2(C)Oc3c(C)c(O)c4c(O)c(c5c(c4c3C2=O)=NC2(CCN(CC(C)C)CC2)N=5)NC(=O)C(C)=CC=CC(C)C(O)C(C)C(O)C(C)C(OC(C)=O)C1C` (stereo unspecified) [Rifabutin], the LC retention time was determined as 2.76 min.

For `CCCC(C)(COC(N)=O)COC(N)=O` [Meprobamate], the LC retention time came out at 1.25 min.

For `CNCCC(Oc1cccc2ccccc12)c1cccs1` (stereo unspecified) [Duloxetine], the LC retention time came out at 2.6 min. In the case of `CCC(=O)NS(=O)(=O)c1ccc(-c2c(-c3ccccc3)noc2C)cc1` [Parecoxib] it was 0.98 min; in that of `CN=C(NC)NCCCC(N)C(=O)O` (stereo unspecified) [SDMA], 8.49 min. The figure for `O=C(O)CNC(=O)OCc1ccccc1` [N-Benzyloxycarbonylglycine] is 7.67 min. For `NCC(=O)O` [Glycine], the LC retention time turned out to be 8.33 min.

`CC1CCN(CCCC(=O)c2ccc(F)cc2)CC1` [Melperone]: the LC retention time came out at 2.12 min. In the case of `Oc1ccc2c3c1OC1C(O)CCC4(O)C(C2)N(CC2CCC2)CCC314` (stereo unspecified) [Nalbuphine] it was 5.25 min; in that of `NC(CCOC(=O)CCC(=O)O)C(=O)O` (stereo unspecified) [O-Succinylhomoserine], 8.06 min. The figure for `NC(Cc1cnc[nH]1)C(=O)O` (stereo unspecified) [Histidine] is 9.48 min; for `CN(C)CCc1c[nH]c2ccc(CC3COC(=O)N3)cc12` (stereo unspecified) [Zolmitriptan] it is 4.8 min; for `CCCC(=O)O` [Butanoic acid] it is 10.2 min. In the case of `COc1cc(C2c3cc4c(cc3C(OC3OC5COC(C)OC5C(O)C3O)C3COC(=O)C23)OCO4)cc(OC)c1O` (stereo unspecified) [Etoposide] it was 1.3 min; in that of `NC(Cn1ccc(=O)[nH]c1=O)C(=O)O` (stereo unspecified) [Willardiine], 8.72 min; in that of `NCC(O)CCC(N)C(=O)O` (stereo unspecified) [delta-Hydroxylysine], 9.77 min. For `CC1(C)OC2COC3(COS(N)(=O)=O)OC(C)(C)OC3C2O1` (stereo unspecified) [Topiramate], the LC retention time came to 1.1 min. The figure for `CC=CC(=O)N(CC)c1ccccc1C` [Crotamiton] is 0.97 min.

Take `CC(C(O)c1ccc(O)cc1)N1CCC(Cc2ccccc2)CC1` (stereo unspecified) [Ifenprodil]: the LC retention time amounted to 3.17 min. `CC(=O)OC12COC1CC(O)C1(C)C(=O)C(O)C3=C(C)C(OC(=O)C(O)C(NC(=O)OC(C)(C)C)c4ccccc4)CC(O)(C(OC(=O)c4ccccc4)C21)C3(C)C` (stereo unspecified) [Docetaxel]: the LC retention time was 1.34 min. With `C=Cc1ccc(O)c(OC)c1` [2-Methoxy-4-vinylphenol], the LC retention time was determined as 8.71 min.

Turning to `COC1C(O)C(CO)OC1n1cc(C)c(N)nc1=O` (stereo unspecified) [2'-O-Methyl-5-methylcytidine], the LC retention time is 4.93 min. The figure for `O=C(O)CCP(=O)(O)O` [3-Phosphonopropionic acid] is 8.59 min. The figure for `NC(CS)C(=O)O` (stereo unspecified) [Cysteine] is 5.31 min. In the case of `Nc1nc2c(ncn2C2OC3COP(=O)(O)OC3C2O)c(=O)[nH]1` (stereo unspecified) [Guanosine-3',5'-cyclic monophosphate] it was 8.39 min; in that of `CC(C)CC(N(C)C)C1(c2ccc(Cl)cc2)CCC1` (stereo unspecified) [Sibutramine], 1.86 min. As for `CS(=O)CCCCN=C=S` (stereo unspecified) [Sulforaphane], the LC retention time came to 1.14 min. The figure for `c1ncc2[nH]cnc2n1` [Purine] is 2.44 min; for `CNNCc1ccc(C(=O)NC(C)C)cc1` [Procarbazine] it is 4.61 min. In the case of `CC=C1C2C=C(C)CC1(N)c1ccc(=O)[nH]c1C2` (stereo unspecified) [Huperzine], the LC retention time amounted to 5.74 min. As to `COc1ccc(CC(C)NCC(O)c2ccc(O)c(NC=O)c2)cc1` (stereo unspecified) [Formoterol], the LC retention time was found to be 5.18 min. The figure for `NNCCc1ccccc1` [Phenelzine] is 4.45 min; for `CN1CCN(c2nc3cc(C(F)(F)F)ccc3n3cccc23)CC1` it is 2.21 min.

On to `Cc1nccn1CC1CCc2c(c3ccccc3n2C)C1=O` (stereo unspecified) [Ondansetron], for which the LC retention time is 2.83 min. The figure for `NC(N)=NCCCC(N)C(=O)O` (stereo unspecified) [Arginine] is 9.53 min. In the case of `CNC(C(=O)O)C(C)O` (stereo unspecified) [N-Methylthreonine], the LC retention time worked out at 7.68 min. The figure for `CN(C)C(=N)N=C(N)N` [Metformin] is 5.44 min; for `O=C(O)CNC(=O)C=Cc1ccccc1` [N-Cinnamoylglycine] it is 2.95 min; for `CC(C)C(C)C=CC(C)C1CCC2C3=CC=C4CC(O)CCC4(C)C3CCC21C` (stereo unspecified) [Ergosterol] it is 1.43 min.

`OCc1cccnc1` [3-Pyridinemthanol]: the LC retention time stood at 1.41 min. The figure for `CCOC(=O)COc1cc(-c2nn(C)c(OC(F)F)c2Cl)c(F)cc1Cl` [Pyrafluefen-ethyl] is 1.02 min; for `CCOC(=O)OC1(C(=O)OCCl)CCC2C3CCC4=CC(=O)C=CC4(C)C3C(O)CC21C` (stereo unspecified) [Loteprednol Etabonate] it is 0.97 min; for `CC(=O)Oc1ccc2c(C)cc(=O)oc2c1` [4-Methylumbelliferyl acetate] it is 1.06 min. Take `CC(C)=CCN1CCC2(C)c3cc(O)ccc3CC1C2C` (stereo unspecified) [Pentazocine]: the LC retention time stood at 2.65 min. In the case of `CCOC(=O)C(CCc1ccccc1)NC1CCc2ccccc2N(CC(=O)O)C1=O` (stereo unspecified) [Benazepril] it was 1.33 min; in that of `CC12CCC3c4ccc(O)cc4CCC3C1CC(OC1OC(C(=O)O)C(O)C(O)C1O)C2O` (stereo unspecified) [16-Glucuronide-estriol], 6.49 min; in that of `c1ccc2c3c([nH]c2c1)CNCC3` [Tryptoline], 4.9 min. The figure for `CC(C)N=c1cc2n(-c3ccc(Cl)cc3)c3ccccc3nc-2cc1Nc1ccc(Cl)cc1` [Clofazimine] is 1.78 min; for `OCC1OC(O)C(O)C(O)C1O` (stereo unspecified) [Glucose] it is 1.84 min. In the case of `CC(=O)NC(Cc1cnc[nH]1)C(=O)O` (stereo unspecified) [N-Acetylhistidine] it was 8.07 min; in that of `CN1C(=O)CN=C(c2ccccc2)c2cc(Cl)ccc21` [Diazepam], 1.1 min; in that of `CNCCc1cnc[nH]1` [N-alpha-methylhistamine], 7.48 min. Take `CCCc1nc(C)c2c(=O)[nH]c(-c3cc(S(=O)(=O)N4CCN(CC)CC4)ccc3OCC)nn12` [Vardenafil]: the LC retention time was 1.7 min.

Turning to `OCC1OC(OCC2OC(OC3(CO)OC(CO)C(O)C3O)C(O)C(O)C2O)C(O)C(O)C1O` (stereo unspecified) [Raffinose], the LC retention time worked out at 9.17 min. In the case of `CC(C)NCC(O)c1ccc(NS(C)(=O)=O)cc1` (stereo unspecified) [Sotalol] it was 4.87 min; in that of `N#CCc1c[nH]c2ccccc12` [3-Indoleacetonitrile], 8.02 min.

On to `Cn1cncc1CC(NC(=O)CCN)C(=O)O` (stereo unspecified) [Anserine], for which the LC retention time was 9.49 min. In the case of `NCCP(=O)(O)O` [2-Aminoethylphosphonic acid] it was 9.39 min; in that of `O=C(O)CCCCCO` [6-Hydroxycaproic acid], 1.34 min. In the case of `C=C(C)C1CC=C(C)CC1` (stereo unspecified) [Limonene] it was 0.92 min. The figure for `c1c[nH]cn1` [Imidazole] is 4.53 min; for `CNCCCC12CCC(c3ccccc31)c1ccccc12` [Maprotiline] it is 2.66 min.

Regarding `NC1C(O)OC(COP(=O)(O)O)C(O)C1O` (stereo unspecified) [Glucosamine-6-phosphate], the LC retention time worked out at 10.1 min. For `Cc1occc(=O)c1O` [Maltol], the LC retention time came out at 1.32 min. The figure for `CN1C(=O)CC(=O)N(c2ccccc2)c2cc(Cl)ccc21` [Clobazam] is 1.1 min; for `CC(=O)Nc1ccc(OC2OC(C(=O)O)C(O)C(O)C2O)cc1` (stereo unspecified) [Acetaminophen glucuronide] it is 7.73 min. The figure for `CN1CCN2c3ncccc3Cc3ccccc3C2C1` (stereo unspecified) [Mirtazapine] is 3.08 min; for `COc1cc(C(=O)O)cc(OC)c1O` [Syringic acid] it is 1.35 min; for `NC(N)=NC(=O)c1nc(Cl)c(N)nc1N` [Amiloride] it is 5.52 min.

(Values after the RepoRT retention time repository.)
